Test system: 945468-187-T-J2-PDC spheroids viability
Assay: Anticancer human tumor 945468-187-T-J2-PDC patient-derived rectal carcinoma cell line growth inhibition [PI3K]
Settings: spheroids with HUVEC and MSC; for IC50: curve of first compound; for viability, T/C: stronger effect = lower value
Procedure, shortened: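 We assembled tumor spheroids that included a stromal compartment of HUVEC and MSCs, then exposed them to targeted agents alone and together with PI3K pathway inhibitors. Concentration series descended by half-log from clinically achievable Cmax levels. Viability served as the endpoint.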

[1] = second compound 0.00316 µM, first compound 0.0316 µM
[2] = second compound 0.00316 µM, first compound 0.1 µM
[3] = second compound 0.00316 µM, first compound 0.316 µM
[4] = second compound 0.00316 µM, first compound 1 µM
[5] = second compound 0.01 µM, first compound 0.0316 µM
[6] = second compound 0.01 µM, first compound 0.1 µM
[7] = second compound 0.01 µM, first compound 0.316 µM
[8] = second compound 0.01 µM, first compound 1 µM
[9] = second compound 0.0316 µM, first compound 0.0316 µM
[10] = second compound 0.0316 µM, first compound 0.1 µM
[11] = second compound 0.0316 µM, first compound 0.316 µM
[12] = second compound 0.0316 µM, first compound 1 µM
[13] = second compound 0.0316 µM, first compound 3.16 µM
[14] = second compound 0.0316 µM, first compound 10 µM
[15] = second compound 0.1 µM, first compound 0.0316 µM
[16] = second compound 0.1 µM, first compound 0.1 µM
[17] = second compound 0.1 µM, first compound 0.316 µM
[18] = second compound 0.1 µM, first compound 1 µM
[19] = second compound 0.1 µM, first compound 3.16 µM
[20] = second compound 0.1 µM, first compound 10 µM
[21] = second compound 0.316 µM, first compound 0.0316 µM
[22] = second compound 0.316 µM, first compound 0.1 µM
[23] = second compound 0.316 µM, first compound 0.316 µM
[24] = second compound 0.316 µM, first compound 1 µM
[25] = second compound 0.316 µM, first compound 3.16 µM
[26] = second compound 0.316 µM, first compound 10 µM
[27] = second compound 1 µM, first compound 0.0316 µM
[28] = second compound 1 µM, first compound 0.1 µM
[29] = second compound 1 µM, first compound 0.316 µM
[30] = second compound 1 µM, first compound 1 µM
[31] = second compound 1 µM, first compound 3.16 µM
[32] = second compound 1 µM, first compound 10 µM
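Further: spheroids exposed to compounds for seven days before reading.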

Q: How did the IC50 (second compound 0.00316 µM) turn out when `C#Cc1c(F)ccc2cc(O)cc(-c3ncc4c(N5CC6CCC(C5)N6)nc(OCC56CCCN5CC(F)C6)nc4c3F)c12` (stereo unspecified) + CC(Nc1ccc2c(c1)OCCn1cc(N3C(=O)OCC3C(F)F)nc1-2)C(N)=O was run?
A: The IC50 was over 10 µM.

Q: What about the IC50 (second compound 0.01 µM) of the same compound?
A: Its IC50 is over 10 µM.

Q: And the IC50 (second compound 0.0316 µM)?
A: The IC50 was over 10 µM.

Q: And the IC50 (second compound 0.1 µM)?
A: The IC50 was over 10 µM.

Q: And the IC50 (second compound 0.316 µM)?
A: The IC50 was over 10 µM.

Q: What about the IC50 (second compound 1 µM) of the same compound?
A: Its IC50 is over 10 µM.

Q: And the viability, T/C [1]?
A: Its viability, T/C is 103%.

Q: And the viability, T/C [2]?
A: The viability, T/C was 86.9%.

Q: And the viability, T/C [3]?
A: Its viability, T/C is 87.3%.

Q: And the viability, T/C [4]?
A: The viability, T/C was 96.7%.

Q: What about the viability, T/C (second compound 0.00316 µM, first compound 3.16 µM) of the same compound?
A: Its viability, T/C is 94%.

Q: And the viability, T/C (second compound 0.00316 µM, first compound 10 µM)?
A: Its viability, T/C is 96.5%.

Q: What about the viability, T/C [5] of the same compound?
A: The viability, T/C was 75.3%.

Q: And the viability, T/C [6]?
A: The viability, T/C was 105%.

Q: And the viability, T/C [7]?
A: The viability, T/C was 81.5%.

Q: What about the viability, T/C [8] of the same compound?
A: The viability, T/C was 82.8%.

Q: And the viability, T/C (second compound 0.01 µM, first compound 3.16 µM)?
A: The viability, T/C was 103%.

Q: And the viability, T/C (second compound 0.01 µM, first compound 10 µM)?
A: The viability, T/C was 86.8%.

Q: And the viability, T/C [9]?
A: The viability, T/C was 94.5%.

Q: And the viability, T/C [10]?
A: The viability, T/C was 85.7%.

Q: And the viability, T/C [11]?
A: The viability, T/C was 79.7%.

Q: What about the viability, T/C [12] of the same compound?
A: The viability, T/C was 88.1%.

Q: And the viability, T/C [13]?
A: Its viability, T/C is 107%.

Q: And the viability, T/C [14]?
A: Its viability, T/C is 103%.

Q: And the viability, T/C [15]?
A: The viability, T/C was 82.6%.

Q: And the viability, T/C [16]?
A: The viability, T/C was 81.2%.

Q: And the viability, T/C [17]?
A: The viability, T/C was 88.7%.

Q: And the viability, T/C [18]?
A: Its viability, T/C is 93.3%.

Q: And the viability, T/C [19]?
A: The viability, T/C was 108%.

Q: What about the viability, T/C [20] of the same compound?
A: Its viability, T/C is 95.3%.

Q: What about the viability, T/C [21] of the same compound?
A: The viability, T/C was 77%.

Q: And the viability, T/C [22]?
A: Its viability, T/C is 70.7%.

Q: What about the viability, T/C [23] of the same compound?
A: The viability, T/C was 76.5%.

Q: And the viability, T/C [24]?
A: Its viability, T/C is 107%.

Q: What about the viability, T/C [25] of the same compound?
A: Its viability, T/C is 81.4%.

Q: And the viability, T/C [26]?
A: The viability, T/C was 74.4%.

Q: What about the viability, T/C [27] of the same compound?
A: The viability, T/C was 72%.

Q: And the viability, T/C [28]?
A: The viability, T/C was 62.4%.

Q: And the viability, T/C [29]?
A: Its viability, T/C is 67.1%.

Q: What about the viability, T/C [30] of the same compound?
A: The viability, T/C was 68.3%.

Q: And the viability, T/C [31]?
A: Its viability, T/C is 75.3%.

Q: And the viability, T/C [32]?
A: The viability, T/C was 69.3%.

Q: What does the source list for `CCN1CCN(Cc2ccc(Nc3ncc(F)c(-c4cc(F)c5nc(C)n(C(C)C)c5c4)n3)nc2)CC1` + COc1c(OCCCN2CCOCC2)ccc2c3n(c(=NC(=O)c4cnc(N)nc4)nc12)CCN3?
A: IC50 (second compound 0.00316 µM): > 1 µM; IC50 (second compound 0.01 µM): > 1 µM; IC50 (second compound 0.0316 µM): 0.704 µM; IC50 (second compound 0.1 µM): 0.199 µM; IC50 (second compound 0.316 µM): < 0.00316 µM; IC50 (second compound 1 µM): < 0.00316 µM; viability, T/C (second compound 0.00316 µM, first compound 0.00316 µM): 107%; viability, T/C (second compound 0.00316 µM, first compound 0.01 µM): 93.5%; viability, T/C [1]: 104%; viability, T/C [2]: 102%; viability, T/C [3]: 87.6%; viability, T/C [4]: 75.1%; viability, T/C (second compound 0.01 µM, first compound 0.00316 µM): 119%; viability, T/C (second compound 0.01 µM, first compound 0.01 µM): 128%; viability, T/C [5]: 94.9%; viability, T/C [6]: 115%; viability, T/C [7]: 84%; viability, T/C [8]: 66.2%; viability, T/C (second compound 0.0316 µM, first compound 0.00316 µM): 120%; viability, T/C (second compound 0.0316 µM, first compound 0.01 µM): 110%; viability, T/C [9]: 92.9%; viability, T/C [10]: 112%; viability, T/C [11]: 69%; viability, T/C [12]: 41.6%; viability, T/C (second compound 0.1 µM, first compound 0.00316 µM): 105%; viability, T/C (second compound 0.1 µM, first compound 0.01 µM): 91.8%; viability, T/C [15]: 93.1%; viability, T/C [16]: 72.7%; viability, T/C [17]: 34.4%; viability, T/C [18]: 22.1%; viability, T/C (second compound 0.316 µM, first compound 0.00316 µM): 48.7%; viability, T/C (second compound 0.316 µM, first compound 0.01 µM): 41.2%; viability, T/C [21]: 39.5%; viability, T/C [22]: 24.4%; viability, T/C [23]: 20.2%; viability, T/C [24]: 21.4%; viability, T/C (second compound 1 µM, first compound 0.00316 µM): 21.7%; viability, T/C (second compound 1 µM, first compound 0.01 µM): 20.8%; viability, T/C [27]: 14.1%; viability, T/C [28]: 17.9%; viability, T/C [29]: 14.3%; viability, T/C [30]: 16.3%

Q: `CNC(=O)c1ccc(N2C(=S)N(c3ccc(C#N)c(C(F)(F)F)c3)C(=O)C2(C)C)cc1F` + CC(Nc1ncnc2nc[nH]c12)c1cc2cccc(Cl)c2c(=O)n1-c1ccccc1 was tested. Which IC50 (second compound 0.0316 µM) did it give?
A: Its IC50 is over 10 µM.

Q: What about the IC50 (second compound 0.1 µM) of the same compound?
A: The IC50 was over 10 µM.

Q: What about the IC50 (second compound 0.316 µM) of the same compound?
A: The IC50 was over 10 µM.

Q: And the IC50 (second compound 1 µM)?
A: The IC50 was over 10 µM.

Q: And the IC50 (second compound 3.16 µM)?
A: Its IC50 is over 10 µM.

Q: What about the IC50 (second compound 10 µM) of the same compound?
A: The IC50 was over 10 µM.

Q: And the viability, T/C [9]?
A: The viability, T/C was 111%.

Q: And the viability, T/C [10]?
A: The viability, T/C was 93.6%.

Q: And the viability, T/C [11]?
A: Its viability, T/C is 96.3%.

Q: What about the viability, T/C [12] of the same compound?
A: The viability, T/C was 85.3%.

Q: And the viability, T/C [13]?
A: Its viability, T/C is 85.1%.

Q: And the viability, T/C [14]?
A: The viability, T/C was 75.7%.

Q: What about the viability, T/C [15] of the same compound?
A: The viability, T/C was 92.6%.

Q: And the viability, T/C [16]?
A: Its viability, T/C is 92.5%.

Q: What about the viability, T/C [17] of the same compound?
A: The viability, T/C was 91.1%.

Q: What about the viability, T/C [18] of the same compound?
A: The viability, T/C was 91%.

Q: What about the viability, T/C [19] of the same compound?
A: Its viability, T/C is 106%.

Q: What about the viability, T/C [20] of the same compound?
A: Its viability, T/C is 88.3%.

Q: And the viability, T/C [21]?
A: Its viability, T/C is 138%.

Q: What about the viability, T/C [22] of the same compound?
A: The viability, T/C was 100%.

Q: What about the viability, T/C [23] of the same compound?
A: The viability, T/C was 95.7%.

Q: What about the viability, T/C [24] of the same compound?
A: Its viability, T/C is 111%.

Q: And the viability, T/C [25]?
A: Its viability, T/C is 101%.

Q: And the viability, T/C [26]?
A: The viability, T/C was 89.5%.

Q: What about the viability, T/C [27] of the same compound?
A: The viability, T/C was 95.5%.

Q: What about the viability, T/C [28] of the same compound?
A: The viability, T/C was 87%.

Q: And the viability, T/C [29]?
A: The viability, T/C was 100%.

Q: What about the viability, T/C [30] of the same compound?
A: The viability, T/C was 105%.

Q: And the viability, T/C [31]?
A: Its viability, T/C is 104%.

Q: And the viability, T/C [32]?
A: The viability, T/C was 114%.

Q: What about the viability, T/C (second compound 3.16 µM, first compound 0.0316 µM) of the same compound?
A: The viability, T/C was 111%.

Q: What about the viability, T/C (second compound 3.16 µM, first compound 0.1 µM) of the same compound?
A: The viability, T/C was 93.9%.

Q: What about the viability, T/C (second compound 3.16 µM, first compound 0.316 µM) of the same compound?
A: Its viability, T/C is 89.7%.

Q: And the viability, T/C (second compound 3.16 µM, first compound 1 µM)?
A: The viability, T/C was 106%.

Q: What about the viability, T/C (second compound 3.16 µM, first compound 3.16 µM) of the same compound?
A: Its viability, T/C is 105%.

Q: What about the viability, T/C (second compound 3.16 µM, first compound 10 µM) of the same compound?
A: The viability, T/C was 93.3%.

Q: What about the viability, T/C (second compound 10 µM, first compound 0.0316 µM) of the same compound?
A: Its viability, T/C is 89.4%.

Q: And the viability, T/C (second compound 10 µM, first compound 0.1 µM)?
A: Its viability, T/C is 108%.

Q: What about the viability, T/C (second compound 10 µM, first compound 0.316 µM) of the same compound?
A: Its viability, T/C is 101%.

Q: And the viability, T/C (second compound 10 µM, first compound 1 µM)?
A: The viability, T/C was 102%.

Q: What about the viability, T/C (second compound 10 µM, first compound 3.16 µM) of the same compound?
A: The viability, T/C was 113%.

Q: What about the viability, T/C (second compound 10 µM, first compound 10 µM) of the same compound?
A: The viability, T/C was 90.5%.

From PubChem BioAssay AID1963972 (Molecular Pharmacology Branch, DTP, NCI, 2024)
